Drawing on PubChem BioAssay (NCI), this text covers GI50 and TGI for 7 compounds.

Common to all, as to assay: DTP human tumour cell line panel, 48 h
In test [1] the test system is SF-295 CNS.
In test [2] the test system is NCI/ADR-RES ovarian.
The subject of test [3] is BT-549 breast.
Test [4] deals with SF-539 CNS.
The subject of test [5] is UACC-257 melanoma.
The test system of test [6] is KM12 colon.
The subject of test [7] is RXF 393 renal.
Test [8] has as its system HL-60(TB) leukemia.
Test [9] has as its system SNB-19 CNS.
Test [10] concerns RPMI-8226 leukemia.

The structures appear in SMILES notation.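 The compound was tested at five concentrations on cells cultured in 96-well plates, with a 48-hour exposure period. GI50 marks 50% less growth. Definition used: TGI = concentration required for complete inhibition of growth.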 Where only a bound is given, the exact number is not on record here.

Take `COc1ccc(-c2cc(-c3ccc(OC)cc3)nc(NCCCNc3ccnc4cc(Cl)ccc34)n2)cc1`: the GI50 (usually the concentration that inhibits growth by half) in test [1] is 13.9 µM; in [2], 1.62 µM; in test [3], 13.1 µM; in test [4], 7.16 µM; in [5], 1.96 µM; in [6], 1.78 µM. In addition, the GI50 was 1.32 µM in test [7], 1.91 µM in test [8] and 1.96 µM in test [9]. Besides, the TGI – broadly, the concentration giving total growth inhibition – worked out at 32 µM in [1]; 3.28 µM in [2]; 27.8 µM in test [3]; 21.4 µM in test [4]; 3.83 µM in test [5]; 3.28 µM in [6]. For the same compound, the TGI in [7] was determined as 2.74 µM; in test [8], 3.86 µM; in [9], 3.99 µM.

Take `COc1ccc(C2=NN(C(C)=O)C(c3ccc(Oc4ccnc5cc(Cl)ccc45)c(OC)c3)C2)cc1` (stereo not drawn): the GI50 is 5.02 µM in [1]; 4 µM in [3]; over 100 µM in [6]; 5.04 µM in test [7]; over 100 µM in [8]; over 100 µM in test [10]. Besides, the GI50 in [9] was 26.8 µM. Moreover, the TGI was 37.2 µM in test [1]; over 100 µM in test [3]; over 100 µM in test [6]; 41 µM in [7]; over 100 µM in [8]; over 100 µM in test [10]. Besides, the TGI in [9] is over 100 µM.

Consider `O=C(Nc1ccccc1Cl)c1ccc(NC2=C(Cl)C(=O)N(C3CCCCC3)C2=O)cc1`, for which the GI50 was 26.4 µM in test [1]; 29.3 µM in test [2]; 20.7 µM in test [3]; 27.3 µM in [4]; 5.29 µM in [5]; 16.9 µM in test [6]. Moreover, the GI50 in test [8] was 3.38 µM; in [10], 7.35 µM; in test [9], 16.9 µM. The TGI came to 68.1 µM in [1]; 82.8 µM in [2]; 47.1 µM in test [3]; 58.5 µM in [4]; 15 µM in test [5]; 35.7 µM in test [6]. Also, the TGI in [8] amounted to 8.48 µM; in test [10], 34.2 µM; in [9], 38.5 µM.

As for `O=[N+]([O-])c1ccc(N=Nc2c(Cl)cc(O)cc2Cl)cc1`, the GI50 was 1.56 µM in test [1]; 0.863 µM in test [2]; 1.67 µM in [3]; 3.1 µM in test [4]; 1.65 µM in test [5]; 1.41 µM in [6]. In addition, the values for the GI50 in test [7], in test [8] and in test [9] were 2.51 µM, 0.382 µM and 1.94 µM, respectively. The TGI in [1] is 3.06 µM; in [2], 8.49 µM; in [3], 6.41 µM; in test [4], 30.6 µM; in test [5] it was 4.49 µM; in test [6], 3.36 µM. For the same compound, the TGI in [7] is 13.5 µM; in test [8], 2.86 µM; in [9], 15.7 µM.

On to `CCN1C(=O)N(CC)C2C1NN=c1s/c(=C\c3ccc(C(F)(F)F)cc3)c(=O)n12` (stereo not drawn), for which the GI50 in [1] is 0.33 µM; in test [2], 0.291 µM; in test [3] it was 0.783 µM; in test [4], 0.247 µM; in test [5], 7.49 µM; in [6] it was 0.309 µM. For the same compound, the GI50 in test [8] is 0.245 µM; in test [10], 0.389 µM; in [9], 0.647 µM. Moreover, the TGI in [1] is 31.2 µM; in test [3], over 20.8 µM; in test [4] it was 0.785 µM; in test [5], 35.4 µM; in [6], over 34.9 µM; in test [8] it was 0.609 µM. Further, the TGI was 8.67 µM in test [10] and over 44.8 µM in test [9].

Consider `COc1ccc2nc3c(cc2c1)C(=O)CC(c1ccccc1)C3` (stereo not drawn), for which the GI50 in test [1] is 0.905 µM; in test [2], 0.359 µM; in test [3] it was 1.36 µM; in test [4], 1.22 µM; in test [5], over 100 µM; in test [6], 0.469 µM. For the same compound, the GI50 is 0.301 µM in test [8], 3.65 µM in test [10] and 2.94 µM in [9]. Besides, the TGI in test [1] is 11 µM; in [2], over 100 µM; in test [3] it was over 100 µM; in test [4] it was 5.15 µM; in test [5], over 100 µM; in test [6], over 100 µM. The TGI in test [10] and in test [9] was over 100 µM each time.

For the compound `Cc1ccc2[nH]c(C(=O)NN3C(=O)C(C)SC34CCC(C)CC4)c(-c3ccccc3)c2c1` (stereo not drawn), the GI50 was 14.3 µM in test [1]; 19.4 µM in test [3]; 20.8 µM in test [4]; 19.1 µM in test [5]; 15.4 µM in test [6]; 13.7 µM in [7]. The values for the GI50 in [10] and in test [9] were 11.5 µM and 22.7 µM, respectively. Moreover, the TGI in test [1] worked out at 32.9 µM; in test [3], 36.3 µM; in test [4], 45.6 µM; in test [5] it was 44.5 µM; in test [6], 35.2 µM; in test [7], 30.1 µM. Besides, the TGI is 52.6 µM in test [10] and 62.4 µM in test [9].
